{"source": "paper PMC7112222", "about": "“Investigation of pyrimidine nucleoside analogues as chemical probes to assess compound effects on the proliferation of Trypanosoma cruzi intracellular parasites” (PLoS Neglected Tropical Diseases, 2020)", "system": "T. cruzi amastigote DNA", "test": "Incorporation of pyrimidine nucleoside analogues into T. cruzi amastigote DNA (click chemistry, colocalisation with Hoechst)", "type": "cell-based, Trypanosoma cruzi", "note": "“And” between values parts separate entries of the source, which are not always exact repeats. Identical values can stand only once.", "data": [{"smiles": "C#Cc1cn([C@H]2C[C@H](O)[C@@H](CO)O2)c(=O)[nH]c1=O", "note": "[EdU, 5-ethynyl-2′-deoxy-uridine]", "values": [{"measurement": "% incorporation into T. cruzi DNA", "setting": "2 hours, 1.8 μM", "value": "75 ± 3.6", "unit": "%"}, {"measurement": "% of Hoechst defined T. cruzi cells with incorporation", "setting": "4 hours, 0.37 μM", "value": "89 ± 4.8", "unit": "%"}, {"measurement": "% of cells with incorporation", "setting": "48 hours exposure, 0.018 μM", "value": "72 ± 1.09", "unit": "%"}, {"measurement": "% of cells containing Alexa Fluor 488 labelled DNA (incorporation)", "setting": "48 hours exposure, 0.037 μM", "value": "93.1 ± 2.8", "unit": "%"}, {"measurement": "highest incorporation", "setting": "48 hours exposure, 0.073 μM", "value": "94 ± 2.5% and 94%"}, {"measurement": "incorporation into T. cruzi DNA following 48 hours incubation (in words)", "setting": "48 hours incubation", "value": "incorporated"}]}]}
